Reference: patent US8557738B2, “Nitrogen-containing heterocyclic derivative and fungicide for agricultural and horticultural use” (Nippon Soda Co., Ltd., priority 2008, dated 2013)

Row | melting point [°C] | Compound
1 | 142 to 143 | Cc1cc(C2=NCCOc3c(Cl)cccc32)cnc1C
2 | 149 to 151 | CC1(C)CN=C(c2cnc3ccccc3c2)c2cccc(Cl)c2O1.Cl
3 | 129 to 131 | CC1(C)CN=C(c2cnc3ccccc3c2)c2cccc(Cl)c2O1.O=C(O)C(F)(F)F
4 | 174 to 176 | CC1(C)CN=C(c2cnc3c(F)cccc3c2)c2cccc(F)c2O1.O=C(O)C(F)(F)F
5 | 164 to 166 | CC1(C)CN=C(c2cnc3c(F)cccc3c2)c2cccc(F)c2O1.Cl
6 | 126 to 128 | Fc1cccc2c1C(c1cnc3ccccc3c1)=NCCO2
7 | 123 to 125 | CC1(Cl)CN=C(c2cnc3ccccc3c2)c2cccc(F)c2O1 (stereo not shown) [B1-30, 2-Chloro-9-fluoro-2-methyl-5-(3-quinolinyl)-2,3-dihydro-benzo[f][1,4]oxazepine]
8 | 165 to 167 | CC1(C)CN=C(c2cnc3c(F)cccc3c2)c2ccccc2O1 [B1-37, 5-(8-Fluoro-quinolin-3-yl)-2,2-dimethyl-2,3-dihydro-benzo[f][1,4]oxazepine]
9 | 171 to 173 | CC1(C)CN=C(c2cnc3c(F)cccc3c2)c2cccc(F)c2O1 [B1-38, 2,2-Dimethyl-9-fluoro-5-(8-fluoro-quinolin-3-yl)-2,3-dihydro-benzo[f][1,4]oxazepine]
10 | 190 to 191 | CC1(C)CN=C(c2cnc3c(F)cccc3c2)c2cccc(Cl)c2O1 [B1-39, 9-Chloro-5-(8-fluoro-quinolin-3-yl)-2,2-dimethyl-2,3-dihydro-benzo[f][1,4]oxazepine]
11 | 145 to 147 | Cc1cccc2cc(C3=NCC(C)(C)Oc4c(Cl)cccc43)cnc12 [B1-40, 9-Chloro-2,2-dimethyl-5-(8-methylquinolin-3-yl)-2,3-dihydro-benzo[f][1,4]oxazepine]
12 | 214 to 217 | CC1(C)CN=C(c2cnc3c(Cl)cccc3c2)c2cccc(Cl)c2O1 [B1-41, 2,2-Dimethyl-9-chloro-5-(8-chloro-quinolin-3-yl)-2,3-dihydro-benzo[f][1,4]oxazepine]
13 | 139 to 142 | CC1N=C(c2cnc3ccccc3c2)c2ccccc2OC1(C)C (stereo not shown) [B1-42, 5-(3-Quinolinyl)-2,2,3-trimethyl-2,3-dihydro-benzo[f][1,4]oxazepine]
14 | 132 to 133 | CC1(C)N=C(c2cnc3ccccc3c2)c2cccc(F)c2OC1(C)C [B1-43, 9-Fluoro-5-(3-quinolinyl)-2,2,3,3-tetramethyl-2,3-dihydro-benzo[f][1,4]oxazepine]
15 | 144 to 145 | CC1(C)N=C(c2cnc3c(F)cccc3c2)c2cccc(F)c2OC1(C)C [B1-45, 9-Fluoro-5-(8-fluoro-quinolin-3-yl)-2,2,3,3-tetramethyl-2,3-dihydro-benzo[f][1,4]oxazepine]
16 | 155 to 157 | CC1(C)CN=C(c2cnc3c(Cl)cccc3c2)c2ccccc2O1 [B1-46, 5-(8-Chloro-quinolin-3-yl)-2,2-dimethyl-2,3-dihydro-benzo[f][1,4]oxazepine]
17 | 93 to 95 | CCC1(C)CN=C(c2cnc3c(F)cccc3c2)c2ccccc2O1 (stereo not shown) [B1-47, 2-Ethyl-5-(8-fluoro-quinolin-3-yl)-2-methyl-2,3-dihydro-benzo[f][1,4]oxazepine]

Row | melting point [°C] | Compound
18 | 144 to 146 | CCC1(C)CN=C(c2cnc3c(F)cccc3c2)c2cccc(Cl)c2O1 (stereo not shown) [B1-48, 9-Chloro-2-ethyl-5-(8-fluoro-quinolin-3-yl)-2-methyl-2,3-dihydro-benzo[f][1,4]oxazepine]
19 | 140 to 142 | CCC1(C)CN=C(c2cnc3c(F)cccc3c2)c2cccc(F)c2O1 (stereo not shown) [B1-49, 2-Ethyl-9-fluoro-5-(8-fluoro-quinolin-3-yl)-2-methyl-2,3-dihydro-benzo[f][1,4]oxazepine]
20 | 196 to 197 | CC1(c2ccccc2)CN=C(c2cnc3ccccc3c2)c2ccccc2O1 (stereo not shown) [B1-52, 2-Methyl-2-phenyl-5-quinolin-3-yl-2,3-dihydro-benzo[f][1,4]oxazepine]
21 | 153 to 155 | COc1cccc2c1OC(C)(C)CN=C2c1cnc2ccccc2c1 [B1-55, 9-Methoxy-2,2-dimethyl-5-quinolin-3-yl-2,3-dihydro-benzo[f][1,4]oxazepine]
22 | 157 to 159 | CC1(C)CN=C(c2cnc3cccc(Cl)c3c2)c2cccc(Cl)c2O1 [B1-57, 9-Chloro-5-(5-chloro-quinolin-3-yl)-2,2-dimethyl-2,3-dihydro-benzo[f][1,4]oxazepine]
23 | 160 to 162 | Cc1cccc2ncc(C3=NCC(C)(C)Oc4c(Cl)cccc43)cc12 [B1-58, 9-Chloro-2,2-dimethyl-5-(5-methyl-quinolin-3-yl)-2,3-dihydro-benzo[f][1,4]oxazepine]
24 | 166 to 168 | Cc1ccc2ncc(C3=NCC(C)(C)Oc4c(Cl)cccc43)cc2c1 [B1-60, 9-Chloro-2,2-dimethyl-5-(6-methylquinolin-3-yl)-2,3-dihydro-benzo[f][1,4]oxazepine]
25 | 182 to 184 | c1ccc2c(c1)N=C(c1cnc3ccccc3c1)c1ccccc1O2 [B1-83, 11-Quinolin-3-yl-dibenzo[b,f][1,4]oxazepine]
26 | 133 to 135 | CC1(C)COc2cc(F)ccc2C(c2cnc3ccccc3c2)=N1 [B1-85, 8-Fluoro-3,3-dimethyl-5-quinolin-3-yl-2,3-dihydro-benzo[f][1,4]oxazepine]
27 | 181 to 183 | CC1(C)CN=C(c2cnc3c(F)cccc3c2)c2ccccc2S1 [B2-13, 2,2-Dimethyl-5-(8-fluoro-quinolin-3-yl)-2,3-dihydro-benzo[f][1,4]thiazepine]
28 | 119 to 122 | CC1(C)CN=C(c2cnc3ccccc3c2)c2cccc(F)c2S1 [B2-14, 4-Fluoro-6,6-dimethyl-9-quinolin-3-yl-6,7-dihydro-5-thia-8-aza-benzocycloheptene]
29 | 179 to 181 | CC1(C)CN=C(c2cnc3c(F)cccc3c2)c2cccc(F)c2S1 [B2-15, 4-Fluoro-9-(8-fluoro-quinolin-3-yl)-6,6-dimethyl-6,7-dihydro-5-thia-8-aza-benzocycloheptene]
30 | 118 to 120 | CC1(C)CN=C(c2cnc3ccccc3c2)c2ccccc2[S+]1[O-] (stereo not shown) [B2-16, 6,6-Dimethyl-9-quinolin-3-yl-6,7-dihydro-5-thia-8-aza-benzocycloheptene 5-oxide]
31 | 225 to 227 | O=C1COc2ccccc2C(c2cnc3ccccc3c2)N1 (stereo not shown) [B4-46, 5-Quinolin-3-yl-4,5-dihydro-benzo[f][1,4]oxazepin-3-one]
32 | 130 to 131 | CC1(C)CNC(c2cnc3c(F)cccc3c2)c2cccc(F)c2O1 (stereo not shown) [B4-47, 9-Fluoro-5-(8-fluoro-quinolin-3-yl)-2,2-dimethyl-2,3,4,5-tetrahydro-benzo[f][1,4]oxazepine]
33 | 117 to 118 | CCN1CC(C)(C)Oc2c(F)cccc2C1c1cnc2c(F)cccc2c1 (stereo not shown) [B4-48, 4-Ethyl-9-fluoro-5-(8-fluoro-quinolin-3-yl)-2,2-dimethyl-2,3,4,5-tetrahydro-benzo[f][1,4]oxazepine]
34 | 133 to 134 | CC1(C)CNC(c2cnc3c(F)cccc3c2)c2cccc(Cl)c2O1 (stereo not shown) [B4-49, 9-Chloro-5-(8-fluoro-quinolin-3-yl)-2,2-dimethyl-2,3,4,5-tetrahydro-benzo[f][1,4]oxazepine]
